Source: patent US20030003440A1, “Novel CCR5 epitope and antibodies against it” (priority 2001, published 2003)

Tests used:
anti-CCR5 Abs = experiment: Epitope mapping of anti-CCR5 Abs on peptide/beads, assayed in the Mip1β binding inhibition assay; design: species or system human; settings: for Binding of anti-CCR5 Abs to peptide: Abs from ESN sera bound to peptide/beads, eluted, tested in Mip1β binding inhibition assay, FIG. 1
Description: Coupling of CCR5 peptides to tosyl-activated Dynabeads M280 (Dynal, Oslo, Norway) was obtained following standard procedures. Briefly, 3×10^7 beads were incubated with 9 μg of CCR5 peptides in 50 mM borate buffer pH 9,5 (16 h at 37° C.). After 4 washes in PBS, peptide/beads were ready for use.
Binding of anti-CCR5 specific Igs to peptide/beads was obtained by incubating 9 μg Ig's to 9 μg peptide/beads for 1 h at 4° C. Ig's were eluted in 0.5 M acetic acid, dialyzed against RPMI medium, then tested in Mip1β binding assays and/or in HIV neutralization assays. To establish if the region recognized by anti-CCR5 antibodies corresponds to a conformational epitope, the specific peptide/beads were incubated with 10 mM of βME, and subsequently with 300 mM of N-Ethyl Maleimide (final concentration: 30 mM) for 60 min prior to antibody binding.
The assay was performed as described (Trkola, A. et al., 1996, Nature 384:184). Briefly, 10^6 purified CD4^+ cells in 200 μl of RPMI (Gibco-Life Technologies, Milan, Italy)(containing 0.05 M NaN3, 1% BSA and 25 mM HEPES) were incubated with appropriate dilutions of affinity-purified anti-CCR5 Abs (Example 1); after 45 min of incubation ^125I-Mip1β (Dupont-NEN, Mechelem, Belgium) was added (final concentration 0.1 nM, 0.2 μCi), and the cells were further incubated for 2 h on ice. Unbound radioactivity was separated by centrifugation on a two-step gradient (Grassi, F. et al., 1991, J. Exp. Med. 174:53) in 0.3 ml tubes (Nunc, Roskilde, Denmark) as follows: the lower layer consisted of fetal calf serum (FCS) containing 10% sucrose; the upper layer consisted of 80% silicone (Sigma-Aldrich) and 20% mineral oil (Sigma-Aldrich). The bound radioactivity in the cell pellets was measured in a gamma counter. Serum samples were diluted 1:10 (5 replicas for each sample). A specificity control consisting of a 100-fold excess of unlabeled Mip1β was included in all experiments. The binding of the ^125I-Mip1β to activated CD4^+ cells ranged between 1000 and 6000 CPM. The cut-off value was set at 12% (3 SD above the mean value of the 45 USN serum samples).

peptide 3 from CCR5 = target: T1, peptide 3 from CCR5 (Homo sapiens, UniProt P51681); experiment: Immunization of mice with KLH-conjugated peptide; binding of mice sera to peptide 3 by ELISA; assay type: in vivo; settings: BALB/c mice, i.p. every 15 days, three immunizations, KLH conjugate 50 μg/dose; FIG. 3
T1 construct: made in house; host or cells: chemical solid-phase synthesis
Description: BALB/c mice were immunized i.p. every 15 days with peptide 3 or with an unrelated control peptide (VQGEESNDK); both peptides had previously been conjugated to KLH (50 μg/dose). Serum was monitored for the presence of antibodies against the immunogens. After three immunizations the mice were sacrificed and sera were tested in direct binding on pep 3.
Binding of mice sera to peptide 3 was obtained by ELISA. Microwells plates were coated with Beads/pep 3 (10^7beads). The plates were satured for 1 h with PBS and 3% BSA. Different dilutions of mice antisera ( 1/10, 1/50, 1/250 and 1/1000) were added and incubated for 2 h at r.t. […] The enzimatic reaction was developed and read at 492 nm.

Substance | Binding of anti-CCR5 Abs to peptide (anti-CCR5 Abs) | Binding on pep 3 of sera of immunized mice (ELISA) (peptide 3 from CCR5) | Binding of anti-CCR5 Abs to peptide after reduction and alkylation (anti-CCR5 Abs; addition of 2-ME and N-ethyl maleimide)
YYTSEPCQKINVKQIAARLLP [compound 2, peptide of the extramembrane region of CCR5] | no binding |  | 
CSSHFPYSQYQFWKNFQTLKc [compound 4] | no binding |  | 
VQGEESNDK [control peptide, unrelated control peptide conjugated to KLH, reference compound] |  | no binding | 
cMDYQVSSPIYDINYYTSEPC [compound 1] | no binding |  | 
FQEFFGLNNCSSSNR [compound 5, peptide of the extramembrane region of CCR5] | no binding |  | 
cYAAAQWDFGNTMCQ (N-terminal Cys added; UniProt P51681 89-102, looked up, fragment) [peptide 3, second external domain of CCR5 (first cysteine loop, aa 89-102) with Cys added at the N-terminus] | Specific Ab binding | specific binding | abolished
